Test results as given in patent publication US20060165785A1, “Method of chemically stabilizing pharmaceutical formulations with cholesterol” (priority 2005, published 2006).

Assay: Chemical stability of composite particles in lactose carrier blend stored at 60° C. and 75% relative humidity for seven days
Format: physicochemical
Procedure: A 20 gram blend of 5% cholesterol coated salmeterol particles was prepared with a concetration of 0.8% w/w salmeterol base in alpha lactose monohydrate. Approximately 10 grams of alpha lactose monohydrate with target particle size of 65-85μm (Borcula, The Netherlands) was weighed into the bottom of a 120 mL amber glass jar. 0.247g of 5% cholesterol coated salmeterol HNA was added on top of the lactose and 9.77 g of lactose was added on top of the mixture. The mixture was blended using a Turbula T2F blender at 96 RPM for 5 minutes. The jar was removed from the blender and excess blend was tapped from the top of the jar. One additional blending cycle was performed for 5 minutes at 96 RPM to complete the process.
Samples of particles prepared in accordance with Example 2 above were stored in controlled atmospheric conditions of 60° C. and 75% relative humidity for seven days. The percentage of active ingredient was taken at day 0 and day 7. […] When cholesterol was included, the degradation was reduced to less than 2%.
It has been observed that micronized SX degrades at 60 ° C. and 75% relative humidity (RH) conditions when in a neat blend with lactose.

Row | % Impurities of Composite Particles in 0.4% GW597901M Base/Lactose Blend, 7 Days at 60° C. and 75% RH (0.4% GW597901M base/lactose blend, 7 days at 60° C. and 75% RH) [%] | % Impurities of Composite Particles in 0.4% GW597901M Base/Lactose Blend, Initial (0.4% GW597901M base/lactose blend, initial) [%] | % Impurities of Composite Particles in 0.8% Salmeterol Base/Lactose Blend, 7 Days at 60° C. and 75% RH (0.8% salmeterol base/lactose blend, 7 days at 60° C. and 75% RH) [%] | % Impurities of Composite Particles in 0.8% Salmeterol Base/Lactose Blend, 7 Days at 60° C. and 75% RH (0.8% salmeterol base/lactose blend, 7 days at 60° C. and 75% RH, listed as MIC SX from alternate study) [%] | % Impurities of Composite Particles in 0.8% Salmeterol Base/Lactose Blend, Initial (0.8% salmeterol base/lactose blend, initial (day 0)) [%] | drop in the amount of SX present in the formulation (degradation) at day 7 (formulation with carrier, 60° C. and 75% relative humidity, day 7 vs day 0) [%] | SMILES
1 | 10.0 | 3.9 |  |  |  |  | NS(=O)(=O)c1cccc(CCCCOCCCCCCNC[C@H](O)c2ccc(O)c(CO)c2)c1 [Micronized GW597901M, 3-(4-{[6-({(2R)-2-hydroxy-2-[4-hydroxy-3-(hydroxymethyl)phenyl]ethyl}amino)hexyl]oxy}-butyl)benzene-sulfonamide]
2 |  |  | 7.4 | 8.0 | 0.5 | 7 | OCc1cc(C(O)CNCCCCCCOCCCCc2ccccc2)ccc1O (stereo not drawn) [Micronized SX, salmeterol xinafoate]
